Assay results taken from US20120022116A1, “COMPOSITIONS AND METHODS FOR THE TREATMENT OF PATHOLOGICAL CONDITION(S) RELATED TO GPR35 AND/OR GPR35-HERG COMPLEX” (priority 2010, published 2012).
Entries after “also recorded” stand apart in the source; their conditions may differ. Read-outs that look alike come from different tables or passages of the source.

Legend:
GPR35 [1] = assay: DMR desensitization / antagonism mode against GPR35 agonist-induced DMR in HT29 cells; format: cell-based, human
hERG channel = hERG channel (Homo sapiens, UniProt Q12809); assay: Automated patch clamp recording of hERG tail current (IonWorks); conditions: hERG tail current ratio post/pre-compound, 50 uM
GPR35 [2] = molecular target: T1, GPR35 (Homo sapiens, UniProt Q9HC97); assay: Ca2+ mobilization assay (Fluo-4) in HEK-GPR35-Gqo5 cells; format: cell-based; conditions: for Ca2+ moblization (HEK-GPR35-Gqo5): HEK293 cells co-expressing GPR35 and Gqo5, Fluo-4, compounds 10 μM
T1 construct: myc; expressed in transfected cells; host or cells: HEK293, transient co-transfection (Lipofectamine LTX)

[3] = HT29 cells pretreated with compound, then GPR35 agonist
[4] = HT29, zaprinast 400 nM, U73122, cytochalasin D, Y27632 10 micromolar, CTX 1 microgram/ml, PTX 100 nanogram/ml

Sequence of GPR35 (Q9HC97 whole entry): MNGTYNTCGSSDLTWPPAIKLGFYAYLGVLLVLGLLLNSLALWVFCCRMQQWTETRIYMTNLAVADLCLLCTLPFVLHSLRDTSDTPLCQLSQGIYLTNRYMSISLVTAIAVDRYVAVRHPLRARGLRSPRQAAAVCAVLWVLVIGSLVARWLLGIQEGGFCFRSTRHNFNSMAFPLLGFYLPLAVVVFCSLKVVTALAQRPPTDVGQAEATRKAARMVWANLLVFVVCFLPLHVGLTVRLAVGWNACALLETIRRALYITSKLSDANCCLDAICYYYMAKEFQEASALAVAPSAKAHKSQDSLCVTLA
T1 sequence (Q9HC97 whole entry): as above
Sequence of hERG channel (Q12809 whole entry): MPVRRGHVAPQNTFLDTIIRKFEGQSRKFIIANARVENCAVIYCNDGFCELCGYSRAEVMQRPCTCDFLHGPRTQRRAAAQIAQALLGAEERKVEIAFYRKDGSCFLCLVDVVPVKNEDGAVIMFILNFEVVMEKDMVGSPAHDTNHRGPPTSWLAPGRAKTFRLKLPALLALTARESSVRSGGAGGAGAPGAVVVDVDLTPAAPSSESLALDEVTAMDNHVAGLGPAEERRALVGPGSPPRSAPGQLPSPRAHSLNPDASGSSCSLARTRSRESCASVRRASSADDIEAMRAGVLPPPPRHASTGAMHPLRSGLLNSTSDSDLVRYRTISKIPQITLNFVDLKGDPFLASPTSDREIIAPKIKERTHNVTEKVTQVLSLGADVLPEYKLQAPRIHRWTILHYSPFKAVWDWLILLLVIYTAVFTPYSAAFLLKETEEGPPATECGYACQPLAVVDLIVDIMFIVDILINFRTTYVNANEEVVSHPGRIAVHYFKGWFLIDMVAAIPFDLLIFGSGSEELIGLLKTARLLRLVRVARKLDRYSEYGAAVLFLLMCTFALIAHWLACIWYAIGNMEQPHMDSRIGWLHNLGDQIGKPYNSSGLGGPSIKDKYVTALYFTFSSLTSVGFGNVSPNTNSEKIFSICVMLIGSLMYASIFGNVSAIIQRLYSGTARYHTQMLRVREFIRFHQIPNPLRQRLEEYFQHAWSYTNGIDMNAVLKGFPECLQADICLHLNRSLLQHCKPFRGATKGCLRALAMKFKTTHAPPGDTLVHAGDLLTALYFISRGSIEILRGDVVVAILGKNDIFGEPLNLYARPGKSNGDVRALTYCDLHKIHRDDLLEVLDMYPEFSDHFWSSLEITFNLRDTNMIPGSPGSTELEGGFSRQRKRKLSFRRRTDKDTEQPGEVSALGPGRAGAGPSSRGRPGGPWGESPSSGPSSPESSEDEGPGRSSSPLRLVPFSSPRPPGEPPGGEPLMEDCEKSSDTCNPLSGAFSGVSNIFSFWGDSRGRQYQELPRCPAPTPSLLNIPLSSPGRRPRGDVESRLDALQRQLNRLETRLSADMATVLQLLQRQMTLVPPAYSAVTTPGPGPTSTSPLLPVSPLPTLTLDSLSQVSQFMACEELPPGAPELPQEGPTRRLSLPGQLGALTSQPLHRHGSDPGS

Row | Molecule | Desenstization to GPR35 agonist (GPR35 [1]; [3]) | Electrophysiology (HEK-hERG) (hERG channel) | Ca2+ moblization (HEK-GPR35-Gqo5) (GPR35 [2]) | further results
1 | N#CC(C#N)=C(N)/C(C#N)=C/c1ccc(O)cc1 [AG112] | desenstized |  |  | 
2 | N#CC(C#N)=Cc1ccc([N+](=O)[O-])c(O)c1 [AG126] | desenstized | inactive |  | 
3 | N#CC(=Cc1ccc2[nH]ccc2c1)C(N)=C(C#N)C#N [AG370] | desenstized | inactive |  | 
4 | N#C/C(=C/c1ccc(O)c(O)c1)C(=O)NCc1ccccc1 [AG490] | desenstized |  |  | 
5 | COc1cc(/C=C(\C#N)C(N)=O)cc(CSc2nc3ccccc3s2)c1O [AG825] | desenstized |  |  | 
6 | CC(C)(C)c1cc(C=C(C#N)C#N)cc(Br)c1O [AG1024] | desenstized |  |  | 
7 | N#CC(C#N)=Cc1cc(O)c(O)c([N+](=O)[O-])c1 [AG1288] | desenstized |  |  | 
8 | CCCCc1ccc(C2(C)OC(=C(C#N)C#N)C(C#N)=C2C)cc1 (stereo not drawn) [Compound 01, 2-dicyanomethylene-3-cyano-4,5-dimethyl-5-[4′-n-butylphenyl]-2,5-dihydrofuran] | desenstized | inactive | inactive | 
9 | CC1=C(C#N)C(=C(C#N)C#N)OC1(C)c1ccc(F)cc1F (stereo not drawn) [Compound 02, 2-dicyanomethylene-3-cyano-4,5-dimethyl-5-[2′,4′-difluorophenyl]-2,5-dihydrofuran] | desenstized | inactive | active | 
10 | CC1=C(C#N)C(=C(C#N)C#N)OC12CCCCC2 [Compound 03, 2-dicyanomethylene-3-cyano-4-methyl-5-spiro-cyclohexyl-2,5-dihydrofuran] | desenstized | inactive | inactive | 
11 | CC1=C(C#N)C(=C(C#N)C#N)OC1(c1ccccc1)C(F)(F)F (stereo not drawn) [Compound 04, 2-dicyanomethylene-3-cyano-4-methyl-5-phenyl-5-perfluoromethyl-2,5-dihydrofuran] | desenstized | activator | active | 
12 | CC1=C(C#N)C(=C(C#N)C#N)OC12c1ccccc1-c1ccccc12 [Compound 05, 2-dicyanomethylene-3-cyano-4-methyl-5-spiro-fluorenylidine-2,5-dihydrofuran] | desenstized | inactive | inactive | 
13 | CC1=C(C#N)C(=C(C#N)C#N)OC1(C)c1ccc(Cl)c(Cl)c1Cl (stereo not drawn) [Compound 06, 2-dicyanomethylene-3-cyano-4,5-dimethyl-5-[2′,3′,4′-trichlorophenyl]-2,5-dihydrofuran] | desenstized | inactive | inactive | 
14 | CC1=C(C#N)C(=C(C#N)C#N)OC1(C)c1ccc(Cl)c(Cl)c1 (stereo not drawn) [Compound 07, 2-dicyanomethylene-3-cyano-4,5-dimethyl-5-[3′,4′-dichlorophenyl]-2,5-dihydrofuran] | desenstized | inactive | active | 
15 | CC1=C(C#N)C(=C(C#N)C(N)=C(C#N)C#N)OC1(C)C [Compound 08, 2-cyano-2-(1-amino-2,2-dicyanovinyl)methylene-3-cyano-4,5,5-trimethyl-2,5-dihydrofuran] | desenstized | inactive | active | 
16 | CCCCCCCCCCC(=O)c1sc2c(Br)csc2c1Br [Compound 15, 3,6-dibromo-thieno[3,2-b]thiophene-2-undecanone] |  | inactive |  | 
17 | CCCCCCCCCCCc1c(C(=O)O)sc2c(Br)csc12 [Compound 16, 3-n-undecyl-6-bromo-thieno[3,2-b]thiophene-2-carboxylic acid] |  | inactive |  | Desenstization to GPR35 agonist (GPR35 [1]): desenstized

Row | Molecule | Desenstization to GPR35 agonist (GPR35 [1]; [3]) | Electrophysiology (HEK-hERG) (hERG channel) | Ca2+ moblization (HEK-GPR35-Gqo5) (GPR35 [2]) | further results
18 | CCCCCCCCCCCCCc1c(C(=O)O)sc2c(Br)csc12 [Compound 17, 3-n-tridecyl-6-bromo-thieno[3,2-b]thiophene-2-carboxylic acid] |  | activator |  | Desenstization to GPR35 agonist (GPR35 [1]): desenstized
19 | CCCCCCCCCCc1c(C(=O)O)sc2c(Br)csc12 [Compound 18, 3-n-decyl-6-bromo-thieno[3,2-b]thiophene-2-carboxylic acid] | desenstized | activator |  | 
20 | CCCCCCCCCCCCCCCc1c(C(=O)O)sc2c(Br)csc12 [Compound 19, 3-n-pentadecyl-6-bromo-thieno[3,2-b]thiophene-2-carboxylic acid] | desenstized | activator |  | 
21 | COc1ccc2c(c1)CC[C@@H]1[C@@H]2CC[C@]2(C)[C@@H](NCCCCCCN3C(=O)C=CC3=O)CC[C@@H]12 [Compound U73122, U73122] |  |  |  | effect of pathway agent pretreatment on the zaprinast DMR signal (GPR35 [1]; [4]): insensitive; effect of pathway agent on the 6-bromo-3-methylthieno[3,2-b]thiophene-2-carboxylic acid DMR (GPR35 [1]; HT29 cells): insensitive
22 | C[C@@H](N)[C@H]1CC[C@H](C(=O)Nc2ccncc2)CC1 [Compound Y27632, Y27632] |  |  |  | effect of pathway agent pretreatment on the zaprinast DMR signal (GPR35 [1]; [4]): partially attenuated; effect of pathway agent on the 6-bromo-3-methylthieno[3,2-b]thiophene-2-carboxylic acid DMR (GPR35 [1]; HT29 cells): partially attenuated
23 | O=C(O)Cc1ccccc1Nc1c(Cl)cccc1Cl [Diclofenac] | desenstized |  | inactive | 
24 | CCN(CC)C(=O)/C(C#N)=C/c1cc(O)c(O)c([N+](=O)[O-])c1 [Entacapone] |  | inactive |  | 
25 | NS(=O)(=O)c1cc(C(=O)O)c(NCc2ccco2)cc1Cl [Furosemdie] | desenstized |  | active | Ca2+ mobilization signal in cells co-expressing GPR35 and Gqo5 (GPR35 [2]; engineered HEK293, 10 μM): active
26 | O=C(O)c1ccccc1Nc1ccccc1 [N-phenylanthranilic] | desenstized |  |  | 
27 | CCNc1nc(C)nc2c1cnn2-c1ccc(C)cc1 [NSC1619] | inactive | activator |  | 
28 | O=C(O)c1ccccc1Nc1ccc(CCc2ccc(Cl)c(Cl)c2)cc1 [PD-118057] | desenstized | activator |  | 
29 | N#CC(C#N)=Cc1ccc(O)c(O)c1 [Tyrphostin 23] | desenstized |  |  | 
30 | N#CC(C#N)=Cc1cc(O)c(O)c(O)c1 [Tyrphostin 25] | desenstized | inactive |  | 
31 | C=C1[C@@H](C)[C@H]2[C@H](Cc3ccccc3)NC(=O)[C@]23[C@H](OC(C)=O)/C=C/[C@@](C)(O)C(=O)[C@@H](C)C/C=C/[C@H]3[C@@H]1O [cytochalasin D] |  |  |  | effect of pathway agent pretreatment on the zaprinast DMR signal (GPR35 [1]; [4]): completely attenuated; also recorded: completely block; effect of pathway agent on the 6-bromo-3-methylthieno[3,2-b]thiophene-2-carboxylic acid DMR (GPR35 [1]; HT29 cells): blocked
32 | Pertussis toxin |  |  |  | effect of pathway agent pretreatment on the zaprinast DMR signal (GPR35 [1]; [4]): insensitive; effect of pathway agent on the 6-bromo-3-methylthieno[3,2-b]thiophene-2-carboxylic acid DMR (GPR35 [1]; HT29 cells): insensitive
33 | cholera toxin |  |  |  | effect of pathway agent on the 6-bromo-3-methylthieno[3,2-b]thiophene-2-carboxylic acid DMR (GPR35 [1]): insensitive; effect of pathway agent pretreatment on the zaprinast DMR signal (GPR35 [1]): insensitive
